# According to the supplement of paper PMC13380429:
# Assays:
# Conditions in all cases: 72 h
# [1] = tested on: HepG2; assay: drug sensitivity score (DSS) for viability; higher = more toxic; extreme values may be limits of the assay
# [2] = tested on: Caco-2; assay: as above
# [3] = tested on: U2OS; assay: as above
# [4] = tested on: Calu-3; assay: as above
# [5] = tested on: Vero E6; assay: as above
# [6] = tested on: HepG2; assay: cell viability relative to DMSO; higher = less toxic
# [7] = tested on: Caco-2; assay: as above
# [8] = tested on: U2OS; assay: as above
# [9] = tested on: Calu-3; assay: as above
# [10] = tested on: Vero E6; assay: as above
# [11] = tested on: HepG2; assay: relative viability EC50 (midpoint between 100% and the lowest measured viability); higher = less toxic
# [12] = tested on: Caco-2; assay: as above
# [13] = tested on: U2OS; assay: as above
# [14] = tested on: Calu-3; assay: as above
# [15] = tested on: Vero E6; assay: as above
Structure (SMILES),drug sensitivity score [1],drug sensitivity score [2],drug sensitivity score [3],drug sensitivity score [4],drug sensitivity score [5],cell viability ([6]; 1 nM),cell viability ([6]; 10 nM),cell viability ([6]; 100 nM),cell viability ([6]; 1000 nM),cell viability ([6]; 10000 nM),cell viability ([7]; 1 nM),cell viability ([7]; 10 nM),cell viability ([7]; 100 nM),cell viability ([7]; 1000 nM),cell viability ([7]; 10000 nM),cell viability ([8]; 1 nM),cell viability ([8]; 10 nM),cell viability ([8]; 100 nM),cell viability ([8]; 1000 nM),cell viability ([8]; 10000 nM),cell viability ([9]; 1 nM),cell viability ([9]; 10 nM),cell viability ([9]; 100 nM),cell viability ([9]; 1000 nM),cell viability ([9]; 10000 nM),cell viability ([10]; 1 nM),cell viability ([10]; 10 nM),cell viability ([10]; 100 nM),cell viability ([10]; 1000 nM),cell viability ([10]; 10000 nM),relative viability EC50 [11],relative viability EC50 [12],relative viability EC50 [13],relative viability EC50 [14],relative viability EC50 [15]
Nc1ncnc(Nc2ccc(Cl)cc2)n1 [chlorazanil],0,0,0,0,0,96.4%,93.9%,88%,93.7%,92.5%,116%,97.7%,96.5%,101%,103%,101%,96.8%,97.8%,98.3%,99.6%,104%,101%,103%,87.4%,98.4%,99.6%,101%,91%,98.6%,101%,> 10 µM,> 10 µM,> 10 µM,> 10 µM,> 10 µM
CCN(CC)CCN(Cc1ccc(-c2ccc(C(F)(F)F)cc2)cc1)C(=O)Cn1c(SCc2ccc(F)cc2)nc(=O)c2c1CCC2 [darapladib],5.5,5.8,5.7,7.1,4.2,91.8%,97.1%,85.3%,101%,0.3%,93.5%,93.6%,98.9%,93.8%,13%,102%,98.3%,103%,98.4%,1.6%,102%,95.7%,106%,90.2%,0.4%,91.9%,100%,90.1%,92.4%,45.1%,3.21 µM,2.59 µM,3.05 µM,2.35 µM,2.05 µM
CC[C@H](CC[C@@H](C)[C@H]1CC[C@H]2[C@@H]3CC=C4C[C@@H](O[C@@H]5O[C@H](CO)[C@@H](O)[C@H](O)[C@H]5O)CC[C@]4(C)[C@H]3CC[C@]12C)C(C)C [daucosterol],0,0,0,0,0,92.5%,96.2%,102%,101%,106%,88.7%,99.4%,107%,102%,100%,97.2%,98.1%,101%,100%,103%,98.4%,106%,99.3%,108%,110%,95.9%,100%,94.5%,90.5%,102%,> 10 µM,> 10 µM,> 10 µM,> 10 µM,> 10 µM
C[C@H]1O[C@@H](O[C@H]2CC[C@@]3(C)[C@H](CC[C@@H]4[C@@H]3C[C@@H](O)[C@]3(C)[C@@H](C5=CC(=O)OC5)CC[C@]43O)C2)C[C@H](O)[C@@H]1O[C@H]1C[C@H](O)[C@H](O[C@H]2C[C@H](O)[C@H](O[C@@H]3O[C@H](CO)[C@@H](O)[C@H](O)[C@H]3O)[C@@H](C)O2)[C@@H](C)O1 [deslanoside],16.7,18.5,18,14,28.7,89.4%,92.9%,76.2%,25.5%,6.7%,98.3%,95%,69.8%,18.6%,20%,101%,98.9%,93.2%,5.9%,10.9%,102%,97.2%,94.2%,28.1%,19.1%,96.7%,94.3%,14.8%,1.5%,1%,0.266 µM,0.131 µM,0.258 µM,0.356 µM,0.0401 µM
CC(C)[C@@H](C)/C=C/[C@@H](C)[C@H]1CC[C@H]2/C(=C/C=C3\C[C@@H](O)CC[C@@H]3C)CCC[C@]12C [dihydrotachysterol],0,0,0,0,0,92.8%,94.3%,95.8%,93.2%,106%,108%,96%,100%,104%,103%,104%,93.1%,101%,99.3%,100%,97.4%,99.7%,97.7%,99.6%,97.7%,101%,100%,98.1%,102%,110%,> 10 µM,> 10 µM,> 10 µM,> 10 µM,> 10 µM
CN(C)CC/C=C1\c2ccccc2CSc2ccccc21 [dosulepin],0.9,0,0,0.6,0,111%,93.5%,94.1%,92.6%,79.9%,94.1%,108%,100%,117%,107%,90.7%,97.5%,96.4%,101%,96.6%,90.7%,104%,101%,89.3%,87%,93.4%,97.3%,104%,96.5%,92.7%,> 10 µM,> 10 µM,> 10 µM,> 10 µM,> 10 µM
NC(N)=Nc1nc(CSCCN/C=N/S(=O)(=O)c2ccc(Br)cc2)cs1 [ebrotidine],0.5,0,0,0,0,98.2%,97.6%,112%,93.4%,86.5%,97.8%,102%,95%,99.5%,99.9%,100%,103%,98.6%,106%,98.9%,96%,101%,94.8%,101%,93.3%,88.7%,91.8%,97.7%,90.6%,105%,> 10 µM,> 10 µM,> 10 µM,> 10 µM,> 10 µM
CCc1cn([C@H]2C[C@H](O)[C@@H](CO)O2)c(=O)[nH]c1=O [edoxudine],0,0,0,0,0,93.8%,88.3%,98.6%,87.4%,85.8%,89.6%,93.6%,99.9%,88.2%,99.5%,102%,101%,98.8%,98.8%,95.3%,102%,95.6%,101%,97%,99.1%,102%,101%,98%,96%,92.4%,> 10 µM,> 10 µM,> 10 µM,> 10 µM,> 10 µM
COc1ccc(CN(C(=O)[C@@H](N)Cc2c(C)cc(C(N)=O)cc2C)[C@@H](C)c2ncc(-c3ccccc3)[nH]2)cc1C(=O)O [eluxadoline],0,0,0,0,0,99.6%,95.4%,97.1%,99.9%,105%,94.1%,98.2%,97.6%,98.5%,113%,91.5%,98.3%,96.1%,100%,98%,96.6%,105%,95.1%,118%,101%,104%,101%,94.5%,98.2%,103%,> 10 µM,> 10 µM,> 10 µM,> 10 µM,> 10 µM
CCCn1c(=O)[nH]c(=O)c2nc[nH]c21 [enprofylline],0.2,0,0,0,0,97.4%,110%,100%,95.9%,88.2%,104%,100%,99.5%,104%,95.5%,104%,99.1%,98.9%,97.6%,104%,105%,96.9%,95.6%,108%,109%,97.6%,98.3%,91.1%,94.7%,94.5%,> 10 µM,> 10 µM,> 10 µM,> 10 µM,> 10 µM
CCOC(=O)[C@@H](C)Oc1ccc(Oc2nc3ccc(Cl)cc3o2)cc1 [fenoxaprop-p-ethyl],0,0,0,0,0,97.9%,102%,103%,101%,108%,102%,100%,103%,101%,97.2%,101%,97.9%,97.3%,101%,99.8%,105%,99%,113%,110%,112%,96.8%,92.2%,93.8%,101%,115%,> 10 µM,> 10 µM,> 10 µM,> 10 µM,> 10 µM
CS(=O)(=O)c1ccc([C@@H](O)[C@@H](CF)NC(=O)C(Cl)Cl)cc1 [florfenicol],3.9,0,0,0,0,107%,91%,115%,93.1%,48%,109%,99.9%,107%,97.1%,96%,99.9%,96.2%,99.1%,98.3%,99.5%,93.7%,90.8%,86.2%,103%,98.8%,100%,104%,95.9%,104%,95.2%,2.11 µM,> 10 µM,> 10 µM,> 10 µM,> 10 µM
Nc1nc(F)nc2c1ncn2[C@@H]1O[C@H](CO)[C@@H](O)[C@@H]1O [fludarabine],1.1,0,0,0.7,0,103%,95.6%,95.2%,95.6%,79.4%,94.1%,104%,102%,99.9%,102%,98.8%,102%,98.6%,102%,103%,111%,88.9%,95.2%,87.6%,87.5%,93.9%,95.2%,92.8%,99.4%,101%,> 10 µM,> 10 µM,> 10 µM,> 10 µM,> 10 µM
